Like-named read-outs stand apart in the source and are kept apart here.
Legend:
MAT2A homodimer = target: T1, MAT2A homodimer (Homo sapiens, UniProt P31153); assay: MAT2A biochemical assay (liberated phosphate, PiColorLock Gold); conditions: Table 5a; MAT2A biochemical assay; read-out: Enzyme Inhibition
T1 construct: inferred from the Ni sepharose purification and imidazole elution; made in house; host or cells: SF9 insect cells, recombinant baculovirus (Bac to Bac, pFASTBAC1)
How it was run: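 Readout is liberated phosphate (PiColorLock Gold), stoichiometric with SAM production, quantified against a potassium phosphate standard curve. Enzyme: recombinant MAT2A homodimer from Sf9, equilibrated 60 min at 25 °C with compound before 60 min reaction with substrate mix containing 500 μM ATP and 400 μM L-methionine.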

[1] = tested on: SAM in HCT116 MTAP-deleted cells; assay: Cellular assay of target engagement (SAM), LC-MS/MS; type: cell-based, human; conditions: 72 h, read-out: Cell 72 h SAM Inhibition (MTAP −/−)
Method: Measurement of MAT2A activity in cells was made by direct quantitation of the abundance of the product of its enzymatic activity, SAM. Cancer cells were treated with candidate MAT2A inhibitors for a suitable incubation period, and the cells were then lysed using a reagent which quenched any further enzyme activity. Soluble metabolites including SAM were collected and SAM itself was directly measured from the lysate using quantitative LC-MS/MS.
A typical assay was performed using an HCT116 human colon carcinoma cell line which was genetically engineered to delete the MTAP gene (commercially available from Horizon Discovery). […] Cells were plated in 96-well dishes at appropriate cell density. Following 24 hours, cells were then treated with the candidate MAT2A inhibitor. […] Compound was then transferred to a working stock plate in cell culture media by adding 5 μL of compound in DMSO to 495 μL of cell culture media. This working stock was then added to cells via a further 5-fold dilution, by adding 25 μL of working stock to 100 μL of cells in culture media. Following compound addition, cells were incubated at 37° C./5% CO2 for 72 hrs.
To quantitate SAM levels following compound treatment, cells were gently washed once in ammonium carbonate buffer (75 mM at pH 7.4), placed on dry ice, and lysed with metabolite extraction buffer (80% cold methanol and 20% water (v/v) with acetic acid at 1M final concentration with 200 ng/mL deuterated d3-SAM as internal control). Following centrifugation at 4° C. at 3,200 rpm for 30 minutes, the supernatant was collected and stored at −80° C. until analysis by Liquid Chromatography with tandem Mass Spectrometry (LC-MS/MS). LC-MS/MS analysis was performed using an API6500 Mass Spectrometer (Sciex, Framingham, Mass., USA) operating in positive ion spray mode and equipped with a Waters UPLC Acquity (Waters, Milford, Mass., USA) BEH Amide column.

HCT116 MTAP-/- = assay: Inhibition of cellular proliferation (Cell Titer Glo), HCT116 MTAP-/-; type: cell-based, human; conditions: 4 days, read-out: 4 Day Relative Growth Inhibition (MTAP −/−)
Method: (§1) Test compound impact on cancer cell growth was assessed by treating cancer cells with compound for 4 days and then measuring proliferation using an ATP-based cell proliferation readout (Cell Titer Glo, Promega Corporation).
(§2) In a typical assay an isogenic pair of HCT116 human colon carcinoma cell lines which vary only in MTAP deletion status (HCT116 MTAP+/+ and HCT116 MTAP−/−) were plated in 96-well dishes at appropriate cell density. Following 24 hours, cells were then treated with the candidate MAT2A inhibitor. […] Compound was then transferred to a working stock plate in cell culture media by adding 5 μL of compound in DMSO to 495 μL of cell culture media. This working stock was then added to cells via a further 5-fold dilution, by adding 25 μL of working stock to 100 μL of cells in culture media. Following compound addition, cells were incubated at 37° C./5% CO2 for 4 days.
(§3) The plate was then covered with aluminum foil and shaken for 15 minutes to ensure complete mixing and full cell lysis. […] This luminescence measure was converted to a proliferation index by subtracting from each data point the ATP luminescence signal measured from a bank (no cells) well and dividing by the ATP luminescence signal measured in 0.2% DMSO control well adjusted for signal in blank well.

HCT116 MTAP+/+ = assay: Inhibition of cellular proliferation (Cell Titer Glo), HCT116 MTAP+/+; type: cell-based; conditions: Homo sapiens, HCT-116, 96 h, Table 5a, 4 days, read-out: 4 Day Relative Growth Inhibition (MTAP +/+)
Method: as §1, §2, §3

[2] = Homo sapiens, HCT-116, Table 5a
[3] = Homo sapiens, HCT-116, 96 h, Table 5a
[4] = Table 6, select pairs of compounds

T1 sequence (P31153 whole entry): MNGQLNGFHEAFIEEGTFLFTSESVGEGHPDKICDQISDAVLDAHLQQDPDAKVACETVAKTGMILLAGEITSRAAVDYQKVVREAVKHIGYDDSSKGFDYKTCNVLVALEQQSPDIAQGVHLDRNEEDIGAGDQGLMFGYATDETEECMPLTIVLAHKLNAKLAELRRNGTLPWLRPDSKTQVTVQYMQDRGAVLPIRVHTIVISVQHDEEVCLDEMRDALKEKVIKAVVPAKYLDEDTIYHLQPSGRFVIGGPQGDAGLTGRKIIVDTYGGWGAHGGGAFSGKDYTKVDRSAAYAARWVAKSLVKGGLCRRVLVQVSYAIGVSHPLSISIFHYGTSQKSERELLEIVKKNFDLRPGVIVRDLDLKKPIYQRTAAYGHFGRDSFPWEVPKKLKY

Row | Compound | IC50 (MAT2A homodimer) [nM] | IC50 [1, 2] [nM] | IC50 (HCT116 MTAP-/-; [3]) [nM] | IC50 (HCT116 MTAP+/+) [nM] | IC50 [1, 4] [nM] | IC50 (HCT116 MTAP-/-; [4]) [nM]
1 | CCOc1ccc2c(n1)N(c1ccc(OC)cc1)C(=O)N(c1ccc3c(c1)N(C)CCO3)C2 [Example 122, 7-ethoxy-1-(4-methoxyphenyl)-3-(4-methyl-3,4-dihydro-2H-benzo[b][1,4]oxazin-6-yl)-3,4-dihydropyrido[2,3-d]pyrimidin-2(1H)-one] | < 100 | 100 to 1000 | 100 to 1000 | > 1000 |  | 
2 | [2H]C([2H])([2H])Oc1ccc(N2C(=O)N(c3ccc4nn(CCC)cc4c3)Cc3ccc(OCC(F)F)nc32)cc1 [Example 123, 7-(2,2-difluoroethoxy)-1-(4-methoxy-d3-phenyl)-3-(2-propyl-2H-indazol-5-yl)-3,4-dihydropyrido[2,3-d]pyrimidin-2(1H)-one] | < 100 | < 100 | 100 to 1000 | > 1000 |  | 
3 | [2H]C([2H])([2H])Oc1ccc(N2C(=O)N(c3ccc4nn(CC)cc4c3)Cc3ccc(OCC(F)F)nc32)cc1 [Example 124, 7-(2,2-difluoroethoxy)-3-(2-ethyl-2H-indazol-5-yl)-1-(4-methoxy-d3-phenyl)-3,4-dihydropyrido[2,3-d]pyrimidin-2(1H)-one] | < 100 | < 100 | < 100 | > 1000 |  | 
4 | [2H]C([2H])([2H])Oc1ccc(N2C(=O)N(c3ccc4nn(CCOC)cc4c3)Cc3ccc(OCC(F)F)nc32)cc1 [Example 125, 7-(2,2-difluoroethoxy)-3-(2-(2-methoxyethyl)-2H-indazol-5-yl)-1-(4-methoxy-d3-phenyl)-3,4-dihydropyrido[2,3-d]pyrimidin-2(1H)-one] | < 100 | < 100 | < 100 | > 1000 |  | 
5 | [2H]C([2H])([2H])Oc1ccc(N2C(=O)N(c3ccc4nn(CCC(F)(F)F)cc4c3)Cc3ccc(OCC(F)F)nc32)cc1 [Example 128, 7-(2,2-difluoroethoxy)-1-(4-methoxy-d3-phenyl)-3-(2-(3,3,3-trifluoropropyl)-2H-indazol-5-yl)-3,4-dihydropyrido[2,3-d]pyrimidin-2(1H)-one] | < 100 | 100 to 1000 | 100 to 1000 | > 1000 |  | 
6 | [2H]C([2H])([2H])Oc1ccc(N2C(=O)N(c3ccc4nn(CCF)cc4c3)Cc3ccc(OCC(F)F)nc32)cc1 [Example 129, 7-(2,2-difluoroethoxy)-3-(2-(2-fluoroethyl)-2H-indazol-5-yl)-1-(4-methoxy-d3-phenyl)-3,4-dihydropyrido[2,3-d]pyrimidin7-2(1H)-one] | < 100 | 100 to 1000 | 100 to 1000 | > 1000 |  | 
7 | CCOc1ccc2c(n1)N(c1ccc(OC(F)F)cc1)C(=O)N(c1ccc(OC)cc1)C2 [Example 130, 1-(4-(difluoromethoxy)phenyl)-7-ethoxy-3-(4-methoxyphenyl)-3,4-dihydropyrido[2,3-d]pyrimidin-2(1H)-one] | < 100 | 100 to 1000 | 100 to 1000 | > 1000 |  | 
8 | CCOc1ccc2c(n1)N(c1ccc(OC(F)F)cc1)C(=O)N(c1ccc3nn(C)cc3c1)C2 [Example 131, 1-(4-(difluoromethoxy)phenyl)-7-ethoxy-3-(2-methyl-2H-indazol-5-yl)-3,4-dihydropyrido[2,3-d]pyrimidin-2(1H)-one] | < 100 | < 100 | 100 to 1000 | 100 to 1000 |  | 
9 | CCSc1ccc2c(n1)N(c1ccc(OC)cc1)C(=O)N(c1ccc3nn(C)cc3c1)C2 [Example 132, 7-(ethylthio)-1-(4-methoxyphenyl)-3-(2-methyl-2H-indazol-5-yl)-3,4-dihydropyrido[2,3-d]pyrimidin-2(1H)-one] | < 100 | 100 to 1000 | 100 to 1000 | > 1000 | 100 to 1000 | 100 to 1000
10 | Cn1cc2cc(N3Cc4ccc(OCC(F)F)nc4N(c4ccc(Br)cc4)C3=O)ccc2n1 [Example 133, 1-(4-bromophenyl)-7-(2,2-difluoroethoxy)-3-(2-methyl-2H-indazol-5-yl)-3,4-dihydropyrido[2,3-d]pyrimidin-2(1H)-one] | < 100 | < 100 | < 100 | > 1000 |  | 
11 | [2H]C([2H])([2H])Oc1ccc(N2C(=O)N(c3ccc4ncn(C)c4c3)Cc3ccc(OCC(F)F)nc32)cc1 [Example 135, 7-(2,2-difluoroethoxy)-1-(4-(methoxy-d3)phenyl)-3-(1-methyl-1H-benzo[d]imidazol-6-yl)-3,4-dihydropyrido[2,3-d]pyrimidin-2(1H)-one] | < 100 | < 100 | < 100 | > 1000 |  | 
12 | [2H]C([2H])([2H])Oc1ccc(N2C(=O)N(c3ccc4nn(C)cc4c3)Cc3ccc(OCC(F)F)nc32)cc1 [Example 136, 7-(2,2-difluoroethoxy)-1-(4-(methoxy-d3)phenyl)-3-(2-methyl-2H-indazol-5-yl)-3,4-dihydropyrido[2,3-d]pyrimidin-2(1H)-one] | < 100 | < 100 | < 100 | 100 to 1000 |  | 
13 | [2H]C([2H])([2H])Oc1ccc(N2C(=O)N(c3ccc4nn(C)cc4c3)Cc3ccc(OCC)nc32)cc1 [Example 137, 7-ethoxy-1-(4-(methoxy-d3)phenyl)-3-(2-methyl-2H-indazol-5-yl)-3,4-dihydropyrido[2,3-d]pyrimidin-2(1H)-one] | < 100 | < 100 | < 100 | > 1000 |  | 
14 | CCOc1ccc2c(n1)N(c1ccc(OC)cc1)C(=O)N(c1ccc3ncn(C)c3c1)C2 [Example 138, 7-ethoxy-1-(4-methoxyphenyl)-3-(1-methyl-1H-benzo[d]imidazol-6-yl)-3,4-dihydropyrido[2,3-d]pyrimidin-2(1H)-one] | < 100 | < 100 | 100 to 1000 | > 1000 |  | 
15 | COc1ccc(N2C(=O)N(c3ccc4ncn(C)c4c3)Cc3ccc(OCC(F)F)nc32)cc1 [Example 139, 7-(2,2-difluoroethoxy)-1-(4-methoxyphenyl)-3-(1-methyl-1H-benzo[d]imidazol-6-yl)-3,4-dihydropyrido[2,3-d]pyrimidin-2(1H)-one] | < 100 | < 100 | < 100 | > 1000 |  | 
16 | Cn1cnc2ccc(N3Cc4ccc(OCC(F)F)nc4N(c4ccc(OC(F)F)cc4)C3=O)cc21 [Example 140, 7-(2,2-difluoroethoxy)-1-(4-(difluoromethoxy)phenyl)-3-(1-methyl-1H-benzo[d]imidazol-6-yl)-3,4-dihydropyrido[2,3-d]pyrimidin-2(1H)-one] | < 100 | < 100 | < 100 | > 1000 |  | 
17 | COc1ccc(N2C(=O)N(c3ccc4nn(C)cc4c3)Cc3ccc(OCC(F)F)nc32)cc1 [Example 141, 7-(2,2-difluoroethoxy)-1-(4-methoxyphenyl)-3-(2-methyl-2H-indazol-5-yl)-3,4-dihydropyrido[2,3-d]pyrimidin-2(1H)-one] | < 100 | < 100 | < 100 | 100 to 1000 |  | 
18 | CCOc1ccc2c(n1)N(c1ccc(OC)nc1)C(=O)N(c1ccc3nn(C)cc3c1)C2 [Example 142, 7-ethoxy-1-(6-methoxypyridin-3-yl)-3-(2-methyl-2H-indazol-5-yl)-3,4-dihydropyrido[2,3-d]pyrimidin-2(1H)-one] | < 100 | < 100 | 100 to 1000 | > 1000 |  | 
